Assay results published in patent US12115222B2, “Compositions and methods for improving the solubility of erectile dysfunction therapeutics” (Villya LLC, priority 2023, dated 2024).
“And” between values parts separate entries of the source, which are not always exact repeats. Equal values may be shown once. Read-outs that look alike come from different tables or passages of the source. Blank lines part the entries; values can stand above or below the compound they belong to.

Experiments:
[1] = drug alone; cited from earlier work
[2] = Stability of the dissolved complex on standing (precipitate); assay type: physicochemical
Protocol: […] […] The clear solution was then dried as described in Step 2 in Example 8. The 10 mg dried solid was then dissolved in 0.6 mL D20.
For NMR, 10 mg of the solid sample obtained was dissolved in 0.6 mL D20. The dissolved 10 mg sample again produced a clear and homogeneous solution. […] The complex in D20 remained stable for 9 days without any observable precipitate forming.

[3] = tested on: S. mansoni newly transformed schistosomula (NTS)
[4] = Text: After solubilizing the sugar and the compound in ethanol or aqueous ethanol, the ethanol is evaporated for example under a high rotary vacuum. The powder resulting from the evaporation step is then resolubilized (dissolved) in water. Another solvent can be methanol at 80% methanol, 95% (ACS grade) or greater (to 100% methanol) as well as combinations of methanol and ethanol or methanol and water. After solubilizing the sugar and the compound in ethanol or aqueous ethanol, the ethanol is evaporated for example under a high rotary vacuum. The powder resulting from the evaporation step is then resolubilized (dissolved) in water.
Generally, ingredients are deposited into a sealed container with ethanol and vortex-mixed to form a solution. The solution is subjected to centrifugation. The ethanol is evaporated off and the dried mixture was dissolved in water. This mixture is centrifuged again and the supernatant is filtered through a membrane. […] In one embodiment, the admixing process involves dissolving the PSD and sugar in the ethanol while stirring and adjusting the pH as necessary to obtain complete dissolution and a clear reaction mixture. The reaction mixture can then be dried to remove the ethanol. No further water washing or filtering is needed.
In this example, an oven-dried single-neck RB flask equipped with a magnetic stir bar was used. […] The reaction mixture was vigorously stirred at room temperature for 30 min at 20° C. […] The white solid was dried using vacuum drying performed at room temperature and a high vacuum pump for about one hour to remove the ethanol (EtOH) completely using an Edvards Model #RV8 […], a Heidolph type Basis Hei-VAP Value, No. 560-00000-0101. The high vacuum pump was connected to a cooling trap and the trap was connected to the RB flask. Vacuum strength was about 1 mm Hg.
The white foamy solid was dried over a high vacuum at room temperature for an additional hour to remove the water completely, by ascertaining changes in weight loss. Drying continued until further weight loss was not observed.
Step 1: In an oven-dried single neck RB flask equipped with magnetic stir and septa (flask cap), 5 mg sildenafil (0.01054 mmol) and 16.95 mg stevioside (1:2 molar ratio) were weighed into the RB flask and dissolved in 85% ethanol (˜2.0 mL, denatured 85% ethanol) at ambient temperature. The reaction mixture was vigorously stirred at room temperature for 30 min. […] The white solid was dried over a high vacuum for an hour to remove the ethanol completely (no further reduction in weight was observed).
Step 2: The obtained white solid was then dissolved in 2.0 mL water at room temperature in an RB flask with a magnetic stir bar. The reaction mixture was stirred at ambient temperature for 30 min. […] The white foamy solid was dried over a high vacuum at room temperature for an additional hour to remove the water completely. The weight of the flask was checked while drying until no further weight loss was observed.

[5] = Non-caloric sugar solubility in water and 95% ethanol
Protocol: In this experiment, the following sugars were compared for solubility: rubusoside, dulcoside A, rebaudioside B, dulcoside B, and rebaudioside D. Approximately 5.0 mg of each sugar was attempted to be dissolved in 0.6 mL water and vortexed for 2 minutes at room temperature.
In another experiment, 50 mg stevia was dissolved in either 2.0 mL water or 2.0 mL 95% ethanol.

[6] = cited from earlier work
[7] = approximately 5.0 mg in 0.6 mL water, vortexed 2 minutes, room temperature

Compound: O=C(C1CCCCC1)N1CC(=O)N2CCc3ccccc3C2C1 (stereo not shown) [Praziquantel]
Solubility of Praziquantel In Ethanol (95%), without sugar [1]: 9.7 g/100 mL
Solubility of Praziquantel In Water, without sugar [1]: 0.04 g/100 mL
time until the water solution became white and turbid ([2]; Example 16, praziquantel:rubusoside 1:2 molar, 0.1 N HCl, pH ~4.7): 15 min
24 hr Exposure LD50 ([3]; 24 hr exposure): 33.5 ± 5.71 µM
72 hr exposure LD50 ([3]; 72 hr exposure (table)): 24.3 ± 0.67 µM
LD50 ([3]; exposure after 72 hours): 33.9 ± 0.64 µM
solubility by 1H-NMR [4]: 0.65
solubility by 1H-NMR analysis [4]: 0.89
solubility for the drug by 1H-NMR analysis [4]: 1.73
solubility in 95% ethanol with Dulcoside A [4]: insoluble
solubility in 95% ethanol with rebaudioside B [4]: insoluble
solubility in 95% ethanol with rebaudioside D [4]: insoluble
solubility in water by NMR [4]: only partial solubility
solubility in water in complex with dulcoside B [4]: well soluble
solubility in water with D-fructose (NMR) [4]: did not make praziquantel soluble or more soluble
solubility in water with rebaudioside D [4]: insoluble

time remained in solution in D2O ([2]; Example 14, 1:3 molar with citric acid): 3 days
solubility in water by 1H-NMR [4]: 100%
solubility in water by NMR ([4]; 30 min): 100%
Compound: CCCc1nn(C)c2c(=O)[nH]c(-c3cc(S(=O)(=O)N4CCN(C)CC4)ccc3OCC)nc12 [Sildenafil, 5-[2-ethoxy-5-(4-methylpiperazin-1-yl)sulfonylphenyl]-1-methyl-3-propyl-6H-pyrazolo[4,3-d]pyrimidin-7-one]

solubility of the sugar in 95% ethanol (observation) ([5]; 50 mg in 2.0 mL 95% ethanol): either insoluble or partially soluble
solubility of the sugar in water (observation) ([5]; 50 mg in 2.0 mL water): soluble
Compound: C=C1C[C@@]23CC[C@H]4[C@@](C)(CCC[C@@]4(C)C(=O)O[C@@H]4O[C@H](CO)[C@@H](O)[C@H](O)[C@H]4O)[C@@H]2CC[C@]1(O[C@@H]1O[C@H](CO)[C@@H](O)[C@H](O[C@@H]2O[C@H](CO)[C@@H](O)[C@H](O)[C@H]2O)[C@H]1O[C@@H]1O[C@H](CO)[C@@H](O)[C@H](O)[C@H]1O)C3 [rebaudioside A]
Sugar Solubility in 95% EtOH [6]: Poorly soluble
Sugar Solubility in Water [6]: Poorly soluble

solubility of the sugar in water (observation) [5, 7]: partially soluble
Compound: C=C1C[C@@]23CC[C@H]4[C@@](C)(CCC[C@@]4(C)C(=O)O[C@@H]4O[C@H](CO)[C@@H](O)[C@H](O)[C@H]4O[C@@H]4O[C@H](CO)[C@@H](O)[C@H](O)[C@H]4O)[C@@H]2CC[C@]1(O[C@@H]1O[C@H](CO)[C@@H](O)[C@H](O[C@@H]2O[C@H](CO)[C@@H](O)[C@H](O)[C@H]2O)[C@H]1O[C@@H]1O[C@H](CO)[C@@H](O)[C@H](O)[C@H]1O)C3 [rebaudioside D]
Sugar Solubility in 95% EtOH [6]: Insoluble
Sugar Solubility in Water [6]: 100 mg/ml and 88.56 mM

solubility of the sugar in 95% ethanol (observation) ([5]; 50 mg in 2.0 mL 95% ethanol): slowly soluble
time to dissolve in 95% ethanol ([5]; 50 mg in 2.0 mL 95% ethanol, room temperature): 2 h
solubility of the sugar in water (observation) ([5]; 50 mg in 2.0 mL water): soluble
Compound: OC[C@H]1O[C@H](O[C@]2(CCl)O[C@H](CCl)[C@@H](O)[C@@H]2O)[C@H](O)[C@@H](O)[C@H]1Cl [sucralose, 1,6-dichloro-1,6-dideoxy-β-D-fructofuranosyl-4-chloro-4-deoxy-α-D-galactopyranoside]
Sugar Solubility in 95% EtOH ([6]; at 20° C.): 283 g/L at 20 °C
Sugar Solubility in Water ([6]; at 20° C.): 110 g/L at 20 °C

solubility of the sugar in water (observation) [5, 7]: partially soluble
Compound: dulcoside A
Sugar Solubility in 95% EtOH [6]: Partly soluble
Sugar Solubility in Water [6]: 2.28 g/L

solubility of the sugar in water (observation) [5, 7]: insoluble in water or poorly soluble
Compound: rebaudioside B
Sugar Solubility in 95% EtOH [6]: Poorly soluble
Sugar Solubility in Water [6]: Poorly soluble
